The values that follow come from article PMC11212559 (Emerging Microbes & Infections, 2024).

The assay has as its target E1CTD-E12 complex (Monkeypox virus Zaire-96-I-16, UniProt Q8V4Y7). The assay is described as follows: biochemical.

SMILES strings stand for the structures.

A word on the Kd: it is the free concentration of one partner at which half of the binding sites on the other are occupied at equilibrium, for simple one-to-one binding. `C[S+](CC[C@H](N)C(=O)O)C[C@H]1O[C@@H](n2cnc3c(N)ncnc32)[C@H](O)[C@@H]1O` (stereo partly shown) [SAM] yielded a Kd of 3.87 µM.
